Measurements: patent US20070117743A1, “New antitumoral compounds” (priority 2003, published 2007)
Read-outs that look alike come from different tables or passages of the source. Where a SMILES comes first, the peptide text is derived from it. Bridges are numbered along the chain shown (N, C = ends). [ ]: non-standard residue; d: D form. The star is where a group is joined. d(aIle) = CC[C@H](C)[C@@H](N)C(=O)O; d(aThr) = C[C@@H](O)[C@@H](N)C(=O)O; Hexanoyl(5-Me) = CC(C)CCCC(=O)*; dCha = N[C@H](CC1CCCCC1)C(=O)O; Orn = NCCC[C@H](N)C(=O)O; Dhb = C/C=C(\N)C(=O)O

Assays:
Type in all cases: cell-based, human
[1] = system: HeLa-APL; assay: SRB colorimetric assay of cell growth and viability, HeLa-APL; conditions: 48 hours exposure; for CC50: read-out: LC50 HELA-APL
[2] = system: LoVo-Dox; assay: SRB colorimetric assay of cell growth and viability, LoVo-Dox; conditions: 48 hours exposure; for CC50: read-out: LC50 LOVO-DOX
How it was run: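 First, 5×10^3 cells per well attach for 18 hours in RPMI 1640 with 10% FBS at 37° C and 5% CO2. Next, samples spanning 10 to 10^−8 μg/mL are added for 48 hours. Finally, cells are fixed with TCA, stained with SRB for 10 minutes and read at 490 nm.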

[3] = system: IGROV-ET; assay: SRB colorimetric assay of cell growth and viability, IGROV-ET; conditions: 48 hours exposure; for CC50: read-out: LC50 IGROV-ET
[4] = system: PANC-1; assay: SRB colorimetric assay of cell growth and viability, PANC-1; conditions: 48 hours exposure; for CC50: read-out: LC50 PANC-1
[5] = system: K-562; assay: SRB colorimetric assay of cell growth and viability, K-562; conditions: 48 hours exposure; for CC50: read-out: LC50 K-562
[6] = system: LNCaP; assay: SRB colorimetric assay of cell growth and viability, LNCaP; conditions: 48 hours exposure; for GI50: read-out: GI50 LN-caP; for CC50: read-out: LC50 LN-caP
[7] = system: HT-29; assay: SRB colorimetric assay of cell growth and viability, HT-29; conditions: 48 hours exposure; for GI50: read-out: GI50 HT-29; for CC50: read-out: LC50 HT-29
[8] = system: SK-MEL-28; assay: SRB colorimetric assay of cell growth and viability, SK-MEL-28; conditions: 48 hours exposure; for CC50: read-out: LC50 MEL-28
[9] = system: SK-BR-3; assay: SRB colorimetric assay of cell growth and viability, SK-BR-3; conditions: 48 hours exposure
[10] = system: IGROV-1; assay: SRB colorimetric assay of cell growth and viability, IGROV-1; conditions: 48 hours exposure
[11] = system: HeLa; assay: SRB colorimetric assay of cell growth and viability, HeLa; conditions: 48 hours exposure; for CC50: read-out: LC50 HELA
[12] = system: DU-145; assay: SRB colorimetric assay of cell growth and viability, DU-145; conditions: 48 hours exposure
[13] = system: A-549; assay: SRB colorimetric assay of cell growth and viability, A-549; conditions: 48 hours exposure; for GI50: read-out: GI50 A-549; for CC50: read-out: LC50 A-549
[14] = system: LoVo; assay: SRB colorimetric assay of cell growth and viability, LoVo; conditions: 48 hours exposure; for CC50: read-out: LC50 LOVO

C/C=C1\NC(=O)[C@H](Cc2ccccc2)NC(=O)[C@@H](C(C)C)NC(=O)[C@@H]([C@@H](C)CC)NC(=O)[C@H](NC(=O)[C@H](NC(=O)[C@H](CCCN)NC(=O)[C@H]2CCCN2C(=O)[C@H](NC(=O)[C@H](CCCN)NC(=O)[C@@H](NC(=O)[C@H](NC(=O)CCCC(C)C)C(C)C)[C@@H](C)O)C(C)C)[C@@H](C)CC)[C@@H](C)OC(=O)[C@H](C(C)C)NC1=O [Compound 49, [Orn^11]-KF] ({Hexanoyl(5-Me)}-[dV]T[Orn][dV][dP][Orn][d(aIle)][d(aThr)][d(aIle)][dV]F[Dhb]V; ester 8-C)
GI50 [1]: 1070 nM | TGI HELA-APL [1]: 2.52E−06 Molar | CC50 [1]: 5950 nM | GI50 [2]: 3220 nM | TGI LOVO-DOX [2]: 6.70E−06 Molar | CC50 [2]: 6700 nM | GI50 [3]: 1910 nM | TGI IGROV-ET [3]: 5.15E−06 Molar | CC50 [3]: 6700 nM | GI50 [4]: 1310 nM | TGI PANC-1 [4]: 3.09E−06 Molar | CC50 [4]: 6700 nM | GI50 [5]: 150 nM | TGI K-562 [5]: 1.67E−06 Molar | CC50 [5]: 6700 nM | TGI LN-caP [6]: 6.70E−06 Molar | GI50 [6]: 2200 nM | CC50 [6]: 6700 nM | TGI HT-29 [7]: 3.74E−06 Molar | GI50 [7]: 1580 nM | CC50 [7]: 6700 nM | GI50 [8]: 1330 nM | TGI MEL-28 [8]: 2.50E−06 Molar | CC50 [8]: 4690 nM | GI50 [9]: 1940 nM | LC50 [9]: 6700 nM | TGI SK-BR-3 [9]: 5.57E−06 Molar | GI50 [10]: 1270 nM | LC50 (concentration causing 50% net cell killing) [10]: 5970 nM | TGI IGROV [10]: 2.75E−06 Molar | GI50 [11]: 1100 nM | TGI HELA [11]: 2.20E−06 Molar | CC50 [11]: 4400 nM | GI50 [12]: 1090 nM | LC50 (concentration causing 50% net cell kill) [12]: 5750 nM | TGI DU-145 [12]: 2.50E−06 Molar | TGI A-549 [13]: 6.70E−06 Molar | GI50 [13]: 2610 nM | CC50 [13]: 6700 nM | GI50 [14]: 1470 nM | TGI LOVO [14]: 3.80E−06 Molar | CC50 [14]: 6700 nM

C/C=C1\NC(=O)[C@H](Cc2ccccc2)NC(=O)[C@@H](C(C)C)NC(=O)[C@@H]([C@@H](C)CC)NC(=O)[C@H](NC(=O)[C@H](NC(=O)[C@H](CCCNC(=O)CCCC[C@@H]2SC[C@@H]3NC(=O)N[C@@H]32)NC(=O)[C@H]2CCCN2C(=O)[C@H](NC(=O)[C@@H](NC(=O)[C@@H](NC(=O)[C@H](NC(=O)CCCC(C)C)C(C)C)[C@@H](C)O)C(C)C)C(C)C)[C@@H](C)CC)[C@@H](C)OC(=O)[C@H](C(C)C)NC1=O [Compound 99, [Orn(Biot)^8]-Kahalalide F]
GI50 ([1]; HELA-APL): 951 nM | TGI HELA-APL ([1]; HELA-APL): 2.10E−06 Molar | CC50 ([1]; HELA-APL): 4650 nM | GI50 ([2]; LOVO-DOX): 139 nM | TGI LOVO-DOX ([2]; LOVO-DOX): 3.10E−07 Molar | CC50 ([2]; LOVO-DOX): 3930 nM | GI50 ([3]; SRB): 874 nM | TGI IGROV-ET ([3]; SRB): 1.88E−06 Molar | CC50 ([3]; SRB): 4040 nM | GI50 ([4]; PANC-1): 1500 nM | TGI PANC-1 ([4]; PANC-1): 3.50E−06 Molar | CC50 ([4]; PANC-1): 5870 nM | GI50 ([5]; K-562): 3300 nM | TGI K-562 ([5]; K-562): 5.87E−06 Molar | CC50 ([5]; K-562): 5870 nM | TGI LN-caP ([6]; SRB): 1.99E−06 Molar | GI50 ([6]; SRB): 1020 nM | CC50 ([6]; SRB): 3890 nM | TGI HT-29 ([7]; HT-29): 2.41E−07 Molar | GI50 ([7]; HT-29): 124 nM | CC50 ([7]; HT-29): 467 nM | GI50 ([8]; SRB): 839 nM | TGI MEL-28 ([8]; SRB): 1.73E−06 Molar | CC50 ([8]; SRB): 3540 nM | GI50 ([9]; SRB): 140 nM | LC50 ([9]; SRB): 575 nM | TGI SK-BR-3 ([9]; SRB): 2.84E−07 Molar | GI50 ([10]; SRB): 268 nM | LC50 (concentration causing 50% net cell killing) ([10]; SRB): 2690 nM | TGI IGROV ([10]; SRB): 8.98E−07 Molar | GI50 ([11]; HELA): 329 nM | TGI HELA ([11]; HELA): 1.19E−06 Molar | CC50 ([11]; HELA): 3510 nM | GI50 ([12]; SRB): 757 nM | LC50 (concentration causing 50% net cell kill) ([12]; SRB): 3260 nM | TGI DU-145 ([12]; SRB): 1.57E−06 Molar | TGI A-549 ([13]; A-549): 2.05E−06 Molar | GI50 ([13]; A-549): 886 nM | CC50 ([13]; A-549): 4760 nM | GI50 ([14]; LOVO): 129 nM | TGI LOVO ([14]; LOVO): 2.53E−07 Molar | CC50 ([14]; LOVO): 495 nM

C/C=C1\NC(=O)[C@H](Cc2ccccc2)NC(=O)[C@@H](CC2CCCCC2)NC(=O)[C@@H](CC2CCCCC2)NC(=O)[C@H](NC(=O)[C@@H](CC2CCCCC2)NC(=O)[C@H](CCCN)NC(=O)[C@H]2CCCN2C(=O)[C@H](NC(=O)[C@@H](NC(=O)[C@@H](NC(=O)[C@H](NC(=O)CCCC(C)C)C(C)C)[C@@H](C)O)C(C)C)C(C)C)[C@@H](C)OC(=O)[C@H](C(C)C)NC1=O [Compound 11, [D-Cha^4, D-Cha^5, D-Cha^7]-KF] ({Hexanoyl(5-Me)}-[dV]TV[dV][dP][Orn][dCha][d(aThr)][dCha][dCha]F[Dhb]V; ester 8-C)
GI50 [1]: 211 nM | TGI HELA-APL [1]: 8.31E−07 Molar | CC50 [1]: 2320 nM | GI50 [2]: 81.9 nM | TGI LOVO-DOX [2]: 1.64E−07 Molar | CC50 [2]: 326 nM | GI50 [3]: 133 nM | TGI IGROV-ET [3]: 3.03E−07 Molar | CC50 [3]: 1290 nM | GI50 [4]: 1430 nM | TGI PANC-1 [4]: 2.74E−06 Molar | CC50 [4]: 5250 nM | GI50 [5]: 1580 nM | TGI K-562 [5]: 2.56E−06 Molar | CC50 [5]: 4140 nM | TGI LN-caP [6]: 1.40E−06 Molar | GI50 [6]: 645 nM | CC50 [6]: 3010 nM | TGI HT-29 [7]: 1.91E−07 Molar | GI50 [7]: 97.4 nM | CC50 [7]: 377 nM | GI50 [8]: 455 nM | TGI MEL-28 [8]: 1.28E−06 Molar | CC50 [8]: 3030 nM | GI50 [9]: 106 nM | LC50 [9]: 599 nM | TGI SK-BR-3 [9]: 2.52E−07 Molar | GI50 [10]: 190 nM | LC50 (concentration causing 50% net cell killing) [10]: 2990 nM | TGI IGROV [10]: 5.67E−07 Molar | GI50 [11]: 223 nM | TGI HELA [11]: 8.93E−07 Molar | CC50 [11]: 2550 nM | GI50 [12]: 220 nM | LC50 (concentration causing 50% net cell kill) [12]: 2640 nM | TGI DU-145 [12]: 8.56E−07 Molar | TGI A-549 [13]: 2.60E−07 Molar | GI50 [13]: 132 nM | CC50 [13]: 511 nM | GI50 [14]: 97.4 nM | TGI LOVO [14]: 1.99E−07 Molar | CC50 [14]: 406 nM
